In publication PMC4109836, “Analysis of the co-operative interaction between the allosterically regulated proteins GK and GKRP using tryptophan fluorescence” (Biochemical Journal, 2014):
Where two headings read alike, the source gives them in different places.

How the values were obtained:
GK-WT = biological target: T1, GK-WT (Homo sapiens, UniProt P35557); parameters: method as in ref 18 (a number printed in a supplementary file, which may have a reference list of its own: not looked up in the article's list); settings: read-out: Kd for MH, cited from earlier work
T1 construct: GST (cleaved yes); made in house; host or cells: Escherichia coli
T1 sequence (P35557 1-465): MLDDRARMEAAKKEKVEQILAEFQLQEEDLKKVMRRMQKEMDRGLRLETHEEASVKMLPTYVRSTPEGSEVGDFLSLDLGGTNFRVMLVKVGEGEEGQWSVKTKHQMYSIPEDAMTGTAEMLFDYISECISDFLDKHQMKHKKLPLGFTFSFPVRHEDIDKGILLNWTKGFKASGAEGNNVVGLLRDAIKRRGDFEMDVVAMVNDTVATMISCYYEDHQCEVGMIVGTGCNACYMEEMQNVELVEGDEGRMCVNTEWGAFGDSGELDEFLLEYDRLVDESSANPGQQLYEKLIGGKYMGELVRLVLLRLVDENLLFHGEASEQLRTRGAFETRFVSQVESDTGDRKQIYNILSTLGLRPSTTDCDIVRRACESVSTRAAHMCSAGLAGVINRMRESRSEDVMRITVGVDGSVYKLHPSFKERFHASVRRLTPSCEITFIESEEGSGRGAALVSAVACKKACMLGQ

GKRP-WT [1] = biological target: T2, GKRP-WT (Homo sapiens, UniProt Q14397); experiment: Ligand binding to free GKRP-WT measured by TF of GKRP; settings: ligand alone
T2 construct: FLAG; made in house; host or cells: Escherichia coli
T2 sequence (Q14397 1-625): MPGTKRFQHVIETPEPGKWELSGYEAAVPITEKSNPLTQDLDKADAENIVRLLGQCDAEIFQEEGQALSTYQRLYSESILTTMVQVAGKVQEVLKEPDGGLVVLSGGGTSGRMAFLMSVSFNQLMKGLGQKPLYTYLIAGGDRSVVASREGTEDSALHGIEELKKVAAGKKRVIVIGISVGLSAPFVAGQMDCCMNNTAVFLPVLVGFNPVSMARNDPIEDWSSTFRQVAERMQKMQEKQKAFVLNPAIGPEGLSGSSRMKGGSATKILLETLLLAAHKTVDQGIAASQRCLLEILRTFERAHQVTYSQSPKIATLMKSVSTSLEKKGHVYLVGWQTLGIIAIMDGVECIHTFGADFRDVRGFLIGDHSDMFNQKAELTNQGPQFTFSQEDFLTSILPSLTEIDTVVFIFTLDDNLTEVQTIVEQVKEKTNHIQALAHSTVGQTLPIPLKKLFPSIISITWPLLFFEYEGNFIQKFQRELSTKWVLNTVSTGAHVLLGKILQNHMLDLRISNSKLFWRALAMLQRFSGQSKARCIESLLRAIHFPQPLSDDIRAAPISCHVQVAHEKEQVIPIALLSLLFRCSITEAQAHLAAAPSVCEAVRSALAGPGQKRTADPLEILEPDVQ

GKRP-P446L [2] = biological target: T3, GKRP-P446L (Homo sapiens, UniProt Q14397, P446L); experiment: Ligand binding to free GKRP-P446L measured by TF of GKRP; settings: ligand alone
T3 construct: FLAG; made in house; host or cells: Escherichia coli
T3 sequence (Q14397 1-625 P446L): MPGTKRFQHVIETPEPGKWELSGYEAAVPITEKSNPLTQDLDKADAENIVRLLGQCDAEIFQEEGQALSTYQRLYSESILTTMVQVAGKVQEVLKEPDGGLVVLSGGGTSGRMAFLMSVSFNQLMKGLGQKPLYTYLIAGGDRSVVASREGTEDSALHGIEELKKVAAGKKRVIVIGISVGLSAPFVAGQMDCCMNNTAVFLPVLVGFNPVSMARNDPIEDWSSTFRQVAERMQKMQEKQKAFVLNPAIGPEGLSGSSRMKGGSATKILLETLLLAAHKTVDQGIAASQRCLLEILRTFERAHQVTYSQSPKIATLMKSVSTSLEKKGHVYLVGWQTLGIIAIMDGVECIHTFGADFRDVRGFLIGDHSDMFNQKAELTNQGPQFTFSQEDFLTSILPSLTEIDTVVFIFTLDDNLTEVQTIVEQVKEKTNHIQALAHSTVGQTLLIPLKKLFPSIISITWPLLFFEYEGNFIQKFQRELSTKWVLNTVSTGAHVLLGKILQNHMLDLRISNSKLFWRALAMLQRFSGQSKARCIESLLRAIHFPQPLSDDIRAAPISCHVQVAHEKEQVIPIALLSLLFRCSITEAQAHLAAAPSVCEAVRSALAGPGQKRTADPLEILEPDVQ

GKRP-WT [3] = biological target: T4, GKRP-WT (Homo sapiens, UniProt P35557+Q14397, W167F/W257F/W99R); experiment: Titration of GKRP-WT with GK-W99R/W167F/W257F (GK–GKRP complex assembly) by TF; type: binding; settings: saturating levels of F6P;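 note: tryptophan fluorescence of GKRP titrated with GK, excitation 295 nm, emission read at 340 nm, phosphate buffer pH 7.2, Hill equation fitting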
T4 construct: FLAG; GST (cleaved yes); made in house; host or cells: Escherichia coli
T4 sequence (Q14397 1-625): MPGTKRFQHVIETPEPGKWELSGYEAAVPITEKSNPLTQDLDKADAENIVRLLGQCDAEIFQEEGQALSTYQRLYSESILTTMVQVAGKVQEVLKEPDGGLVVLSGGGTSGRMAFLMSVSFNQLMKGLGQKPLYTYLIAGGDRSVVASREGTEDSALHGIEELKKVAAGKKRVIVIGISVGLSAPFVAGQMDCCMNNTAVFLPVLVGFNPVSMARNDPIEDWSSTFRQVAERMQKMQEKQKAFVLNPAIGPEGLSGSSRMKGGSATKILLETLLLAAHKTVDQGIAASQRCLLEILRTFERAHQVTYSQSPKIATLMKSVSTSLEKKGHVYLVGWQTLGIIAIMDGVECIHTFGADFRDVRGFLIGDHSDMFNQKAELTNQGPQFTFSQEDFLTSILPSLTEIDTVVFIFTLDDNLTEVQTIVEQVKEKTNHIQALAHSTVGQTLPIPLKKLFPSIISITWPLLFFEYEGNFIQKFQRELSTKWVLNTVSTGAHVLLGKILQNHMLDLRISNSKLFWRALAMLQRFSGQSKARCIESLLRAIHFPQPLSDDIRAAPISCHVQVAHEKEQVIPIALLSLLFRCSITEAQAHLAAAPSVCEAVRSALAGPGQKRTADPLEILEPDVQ
T4 sequence (P35557 1-465 W99R/W167F/W257F): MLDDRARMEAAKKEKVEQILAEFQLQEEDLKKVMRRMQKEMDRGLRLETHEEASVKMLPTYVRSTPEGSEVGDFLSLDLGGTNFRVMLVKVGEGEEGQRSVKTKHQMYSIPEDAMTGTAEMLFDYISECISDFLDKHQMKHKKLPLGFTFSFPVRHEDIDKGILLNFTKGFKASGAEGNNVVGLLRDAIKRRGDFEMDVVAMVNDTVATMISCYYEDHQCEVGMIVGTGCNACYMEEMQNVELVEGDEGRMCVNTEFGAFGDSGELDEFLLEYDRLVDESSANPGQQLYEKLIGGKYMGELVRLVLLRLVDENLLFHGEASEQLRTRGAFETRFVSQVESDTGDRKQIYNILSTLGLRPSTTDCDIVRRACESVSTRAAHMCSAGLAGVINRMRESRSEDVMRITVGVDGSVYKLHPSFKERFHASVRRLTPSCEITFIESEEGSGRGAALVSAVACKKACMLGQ

GKRP-P446L [4] = biological target: T5, GKRP-P446L (Homo sapiens, UniProt P35557+Q14397, P446L/W167F/W257F/W99R); experiment: Titration of GKRP-P446L with GK-W99R/W167F/W257F (GK–GKRP complex assembly) by TF; type: binding; settings: saturating levels of F6P
T5 construct: FLAG; GST (cleaved yes); made in house; host or cells: Escherichia coli
T5 sequence (Q14397 1-625 P446L): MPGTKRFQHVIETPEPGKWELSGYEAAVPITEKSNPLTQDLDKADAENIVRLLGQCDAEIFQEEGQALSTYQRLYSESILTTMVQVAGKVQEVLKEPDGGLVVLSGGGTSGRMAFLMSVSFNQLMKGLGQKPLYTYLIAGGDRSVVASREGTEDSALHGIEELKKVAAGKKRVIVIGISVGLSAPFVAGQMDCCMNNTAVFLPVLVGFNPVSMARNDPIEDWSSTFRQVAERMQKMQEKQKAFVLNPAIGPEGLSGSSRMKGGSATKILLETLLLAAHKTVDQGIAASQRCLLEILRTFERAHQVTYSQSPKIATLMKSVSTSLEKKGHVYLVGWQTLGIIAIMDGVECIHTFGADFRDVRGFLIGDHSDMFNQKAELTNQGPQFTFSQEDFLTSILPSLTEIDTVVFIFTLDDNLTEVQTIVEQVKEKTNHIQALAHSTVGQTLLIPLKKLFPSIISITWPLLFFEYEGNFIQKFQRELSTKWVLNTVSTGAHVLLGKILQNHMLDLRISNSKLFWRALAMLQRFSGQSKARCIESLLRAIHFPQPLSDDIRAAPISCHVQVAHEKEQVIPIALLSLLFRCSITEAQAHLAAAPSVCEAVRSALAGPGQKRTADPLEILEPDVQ
T5 sequence (P35557 1-465 W99R/W167F/W257F): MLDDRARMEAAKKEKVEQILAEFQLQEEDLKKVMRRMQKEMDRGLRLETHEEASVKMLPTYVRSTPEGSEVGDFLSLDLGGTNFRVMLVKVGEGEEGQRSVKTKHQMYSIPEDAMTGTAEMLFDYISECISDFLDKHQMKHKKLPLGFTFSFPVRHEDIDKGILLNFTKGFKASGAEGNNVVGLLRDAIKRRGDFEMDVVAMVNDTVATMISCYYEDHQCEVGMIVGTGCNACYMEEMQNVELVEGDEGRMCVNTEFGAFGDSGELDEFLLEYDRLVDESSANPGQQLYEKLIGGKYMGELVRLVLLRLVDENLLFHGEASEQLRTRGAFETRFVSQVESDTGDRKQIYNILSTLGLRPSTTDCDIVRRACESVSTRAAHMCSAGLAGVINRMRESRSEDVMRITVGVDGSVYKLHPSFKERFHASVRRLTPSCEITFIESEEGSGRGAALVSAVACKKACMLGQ
Experimental: Spectra were measured with a Fluorolog-3-21 Jobin-Yvon Spex Instrument SA equipped with a 450 W Xenon lamp for excitation and a cooled R2658P Hamamatsu photomultiplier tube for detection. For all measurements, 90° geometry was employed and 295 nm excitation wavelengths were used to observe fluorescence emission in the 300–500 nm range. For TF, spectra slit width was set to provide a bandpath of 3 nm for excitation and 3 nm for emission. Spectra were corrected for instrumental response using Spex instrument software. A thermostatically controlled cell holder maintained sample temperature at 20°C. A thermocoupler was used to measure sample temperature. The buffer used contained 20 mM phosphate, 50 mM KCl, 1 mM EDTA and 1 mM DTT (pH 7.2).
Fluorescence data were obtained via the stepwise addition of the appropriate amount of non-fluorescent GK-W99R/W167F/W257F to GKRP in a fluorescence cuvette. […] The change in GKRP protein fluorescence during titration was also measured using time-dependent scans. A manual procedure was used such that a typical titration with 10–12 additions required 20–25 min to perform. The same buffer as described above was routinely used unless stated otherwise. The bandpath was 0.5 nm at 295 nm for excitation and 12 nm at 340 nm for emission. […] For some graphical presentations the linear form of the Hill equation was used: log[F/(Fsat−F)]=H log x−H log KD [46].

H (Hill number) (GKRP-WT [1]; 0.3 μM GKRP-WT, 20°C)	ΔF (relative fluorescence change at 340 nm) (GKRP-WT [1]; 0.3 μM GKRP-WT, 20°C)	Kd (GKRP-WT [1]; 0.3 μM GKRP-WT, 20°C, read-out: S0.5) [µM]	effect on the TF signal of GKRP-WT (GKRP-WT [1])	H (Hill number) (GKRP-P446L [2]; 0.3 μM GKRP-P446L, 20°C)	ΔF (relative fluorescence change at 340 nm) (GKRP-P446L [2]; 0.3 μM GKRP-P446L, 20°C)	Kd (GKRP-P446L [2]; 0.3 μM GKRP-P446L, 20°C, read-out: S0.5) [µM]	effect on the TF signal of GKRP-P446L (GKRP-P446L [2])	effect on the binding of GKRP-WT to GK (GKRP-WT [3])	Compound	Kd (GK-WT; in the presence of GKA (20 μM)) [µM]	Kd (GK-WT; without GKA) [µM]	effect on the binding of GKRP-P446L to GK (GKRP-P446L [4])
									O=C(CO)[C@@H](O)[C@@H](O)[C@H](O)[C@H](O)CO [MH, D-mannoheptulose]	1000	17000	
3.6	0.04	278	increase	2.94	0.07	242	increase	no significant effect	O=C(CO)[C@@H](O)[C@H](O)[C@H](O)COP(=O)([O-])[O-].[Na+].[Na+] [F6P, D-fructose 6-phosphate disodium salt]			increased the affinity of GKRP-P446L for GK
